How the values were obtained:
[1] = Selectivity index, ratio of CC50 for African green monkey Vero cells to EC50 for anti-schistosomal activity against male Schistosoma mansoni; type: toxicity, cell-based; conditions: read-out: Ratio CC50/EC50
[2] = Selectivity index, ratio of CC50 for African green monkey Vero cells to EC50 for anti-schistosomal activity against female Schistosoma mansoni; type: toxicity, cell-based; conditions: read-out: Ratio CC50/EC50
[3] = Toxicity against L4 stage of Caenorhabditis elegans assessed as effect on viability by measuring mobility at 25 to 200 uM incubated for 24 hrs by inverted microscopic analysis; conditions: dose 25-200 µM

| Structure (SMILES) | selectivity ratio [1] | selectivity ratio [2] | Activity [3] |
| --- | --- | --- | --- |
| CCCCCCCC/C=C\[C@@H](O)[C@H](O)CCCCCC(=O)O | > 24.1 | > 6.13 | Non-toxic |
| O=C(C1CCCCC1)N1CC(=O)N2CCc3ccccc3C2C1 (stereo not given) [PRAZIQUANTEL] | > 250 | > 333 |  |

From ChEMBL document CHEMBL6153043, “Anthelmintic Potential of Conjugated Long-Chain Fatty Acids Isolated from the Bioluminescent Mushroom Neonothopanus gardneri” (J Nat Prod, 2025)
